Consider 8 molecules from patent US10053725B2, “In situ interaction determination” (President and Fellows of Harvard College, priority 2013, dated 2018).

Experiment [1] deals with T1, streptavidin (SA) (Streptomyces avidinii, UniProt P22629). The experiment in a line: Antibody-mediated ISID with DNA-αSA and streptavidin (qPCR, mock-library enrichment). It is filed as binding. On the procedure: (§1) In cases where recombinant SA or CAII was added to HeLa lysate at 0.01% wt, the protein content of the HeLa cell lysate was first estimated using the Modified Lowry Assay Kit (Thermo Scientific). HeLa cell lysate replaced water in the primer extension reaction mixture, and was added in volumes of 5.7-8.5 μL, with a maximum weight of 60 μg total protein added.
T1 sequence (P22629 25-183, species assumed): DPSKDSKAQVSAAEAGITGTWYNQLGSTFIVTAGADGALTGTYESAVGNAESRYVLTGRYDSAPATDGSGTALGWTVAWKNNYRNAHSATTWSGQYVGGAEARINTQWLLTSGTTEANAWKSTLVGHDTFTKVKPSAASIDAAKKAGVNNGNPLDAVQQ
A general note: Real-time PCR tracks product formation cycle by cycle.

Experiment [2] addresses T1, streptavidin (SA). Conditions: read-out: SA-iminobiotin Kd; cited from earlier work.
Another experiment has as its target Bcl-xL (Homo sapiens, UniProt Q07817). Conditions: cited from earlier work.
The target of experiment [3] is T2, SNAP-Bcl-xL or Bcl-xL-SNAP (Homo sapiens, UniProt Q07817).
T2 construct: His6-Bcl-xL (truncated C-terminus, amino acids 1 to 212); expressed in transfected cells; host or cells: HEK-293T (lysate)
T2 sequence (Q07817 1-212): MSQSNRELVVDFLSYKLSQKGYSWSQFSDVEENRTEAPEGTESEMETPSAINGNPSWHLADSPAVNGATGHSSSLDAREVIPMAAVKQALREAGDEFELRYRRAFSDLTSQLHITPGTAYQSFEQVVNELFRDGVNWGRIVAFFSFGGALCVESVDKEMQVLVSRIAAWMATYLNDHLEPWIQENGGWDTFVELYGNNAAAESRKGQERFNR
Put plainly: ISID in 293T cell lysate expressing SNAP-tagged Bcl-xL. The format is binding. Conditions: mixtures of DNA-Bak/DNA-BakL78A/DNA-biotin.

A further experiment deals with T3, His6-Bcl-xL (Homo sapiens, UniProt Q07817).
T3 construct: His6-Bcl-xL (truncated C-terminus, amino acids 1 to 212); expressed in transfected cells; host or cells: HEK-293T (lysate)
T3 sequence (Q07817 3-212): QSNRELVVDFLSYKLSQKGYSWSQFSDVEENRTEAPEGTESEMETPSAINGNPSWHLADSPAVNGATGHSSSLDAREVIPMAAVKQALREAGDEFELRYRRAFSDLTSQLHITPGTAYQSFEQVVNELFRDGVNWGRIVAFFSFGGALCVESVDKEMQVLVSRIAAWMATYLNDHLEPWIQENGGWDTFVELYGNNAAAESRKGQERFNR
The experiment in a line: ISID with DNA-αHis and His6-tagged Bcl-xL. The format is binding.

The target of experiment [4] is carbonic anhydrase II (CAII) (Homo sapiens, UniProt P00918). Conditions: read-out: CAII:GLCBS Kd; cited from earlier work.
Experiment [5] concerns the target T4, carbonic anhydrase II (CAII) (Homo sapiens, UniProt P00918, S2A).
T4 construct: made in house; host or cells: E. coli BL21(DE3), pACA plasmid
Put plainly: Antibody-mediated ISID with DNA-αCAII and CAII in HeLa lysate. Conditions: T4 DNA polymerase; mock library DNA-GLCBS/DNA-desthiobiotin; 0.01% CAII in HeLa lysate. The format is binding. On the procedure: as §1

The next experiment concerns the target T5, SNAP-CA (Homo sapiens, UniProt P00918).
T5 construct: expressed in transfected cells; host or cells: HEK-293T (lysate)
Put plainly: Model library×library ISID with SNAP-tagged targets: CAII. Conditions: 262 DNA-linked ligands × 259 DNA-linked targets; counts DNA-BG sample / DNA alone sample. The format is binding.

The next experiment concerns the target T6, SNAP-CAII or CAII-SNAP (Homo sapiens, UniProt P00918, S2A).
T6 construct: expressed in transfected cells; host or cells: HEK-293T (lysate)
Put plainly: ISID in 293T cell lysate expressing SNAP-tagged CAII. The format is binding. Conditions: 293T lysate expressing SNAP-CAII or CAII-SNAP; mixtures with DNA-desthiobiotin.

The next experiment concerns the target T7, CAII-His6 (Homo sapiens, UniProt P00918).
T7 construct: expressed in transfected cells; host or cells: HEK-293T (lysate)
The experiment in a line: ISID with DNA-αHis and His6-tagged CAII. It is filed as binding.

For the next experiment, the target named is T8, SNAP-Bcl-xL (UniProt Q07817-1 1-212, SNAP-tag covalently labelled with O6-benzylguanine-linked DNA (DNA-BG)).
T8 construct: also called N-terminally SNAP-tagged Bcl-xL; not shown: SNAP-tag from the pSNAPf vector (New England Biolabs)
T8 sequence (Q07817 1-212): as the sequence (Q07817 1-212) above
Put plainly: model library x library ISID, pooled 293T lysates expressing SNAP-target fusions; sequence counts with DNA-BG divided by counts with DNA alone.

Experiment [6] has as its target T9, His6-Bcl-xL (truncated C-terminus, amino acids 1 to 212) (UniProt Q07817 1-212).
T9 construct: range 1-212
The experiment in a line: ISID with DNA-αHis in lysate of 293T cells expressing His6-Bcl-xL, mock library, restriction digest and PAGE.

Where [7] appears, read: T4 DNA polymerase, 8-nt complementary region, mock library with DNA-GLCBS, SA 0.01% wt in HeLa lysate.

Where no end group is shown, it is not given here.

Sequence of Bcl-xL (Q07817 whole entry, species assumed): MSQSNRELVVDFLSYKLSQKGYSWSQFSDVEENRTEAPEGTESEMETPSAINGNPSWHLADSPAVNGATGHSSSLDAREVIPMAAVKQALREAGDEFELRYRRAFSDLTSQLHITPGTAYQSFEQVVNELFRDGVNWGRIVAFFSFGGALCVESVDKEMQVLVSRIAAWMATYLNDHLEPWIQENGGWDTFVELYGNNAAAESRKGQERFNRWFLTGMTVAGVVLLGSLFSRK
T9 sequence (Q07817 other isoform, or with tags, fused parts or gaps): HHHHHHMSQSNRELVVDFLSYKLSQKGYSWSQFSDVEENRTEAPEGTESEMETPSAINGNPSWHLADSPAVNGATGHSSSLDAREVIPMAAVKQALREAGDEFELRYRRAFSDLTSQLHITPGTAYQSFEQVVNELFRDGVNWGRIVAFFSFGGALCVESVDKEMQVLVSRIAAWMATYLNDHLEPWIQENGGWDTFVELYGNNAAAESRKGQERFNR

Regarding `O=C(O)CCCC[C@@H]1SC[C@@H]2NC(=O)N[C@@H]21` [biotin], the enrichment of sequence on streptavidin (SA) [1] (Klenow exo−, mixtures DNA-biotin/DNA-GLCBS, SA 0.01% wt in HeLa cell lysate) is recorded as approximately 10 fold; on streptavidin (SA) [1] (setting [7]) it was ~1,000 fold. The same molecule came in with an improvement in enrichment at streptavidin (SA) [1] (T4 DNA polymerase/8-nt vs Klenow exo−/6-nt complementary region) of 100 fold.

At streptavidin (SA) [1] (DNA-αSA, 0.01% SA in HeLa lysate, qPCR), `C[C@@H]1NC(=O)N[C@@H]1CCCCCC(=O)O` [desthiobiotin] had a ΔCT of 4.7. This molecule also displayed an enrichment of sequence on streptavidin (SA) [1] (setting [7]) of approximately 1000 fold.

In general, Kd refers to a measure of binding affinity in units of concentration. Turning to `N=C1N[C@H]2[C@H](CS[C@H]2CCCCC(=O)O)N1` [iminobiotin], the Kd on streptavidin (SA) [2] is 13 µM.

As to “BakL78A: BakL78A (72-87) peptide, a weakly binding mutant of the Bak peptide (GQVGRQAAIIGDDINR; not fully specified)”, the Kd in the experiment with Bcl-xL is 270 µM. Further, the enrichment of sequence result in experiment [3] is given as “no enrichment”.

For “DNA-Bad: DNA oligonucleotide linked to Bad BH3 peptide”, the ΔCT is 8 with His6-Bcl-xL (293T cell lysate expressing His6-BclxL, vs DNA-GLCBS or DNA-biotin) and 3 cycles with His6-Bcl-xL (recombinant His6-Bcl-xL).

With Gly-Leu-CBS [GLCBS], the Kd in experiment [4] was 0.04 µM. The enrichment of sequence is on record as 10 fold in experiment [5]; approximately 100 fold on SNAP-CAII or CAII-SNAP; approximately 10 fold at CAII-His6 (293T cell lysate expressing CAII-His6, undiluted, mock library); approximately 100 fold on CAII-His6 (transfected lysate diluted 1:10 into untransfected 293T lysate); approximately 10 fold on CAII-His6 (transfected lysate diluted 1:100 into untransfected lysate, approximating 3 nM CAII-His6). The same molecule displayed an enrichment factor on SNAP-CA of 178.3.

B1: Bad BH3 peptide (103-127) (peptide, UniProt Q92934 103-127, looked up)
peptide: NLWAAQRYGRELRRMSDEFVDSFKK
modifications: also: conjugated to 3'-thiol DNA via SM(PEG)2 crosslinker, attachment site not given here
notes: range 103-127; Used as a peptide-DNA conjugate in ISID; also called DNA-Bad; 3h-Bad
As to B1, in the experiment with SNAP-Bcl-xL, the enrichment factor turned out to be 238. In addition, the enrichment in experiment [6] was approximately 100 fold.

B2: BakL78A (72-87) peptide (peptide, UniProt Q16611 72-87, looked up)
peptide: GQVGRQAAIIGDDINR
modifications: also: conjugated to 3'-thiol-modified DNA via SM(PEG)2 crosslinker, site not given here
notes: range 72-87; also called DNA-BakL78A; 3i-BakL78A
In the experiment with SNAP-Bcl-xL, B2 displayed an enrichment factor of 3.9.
